{"source": "ChEMBL document CHEMBL3576778", "about": "“Structure-Activity Relationship Studies of a Series of Semisynthetic Lipopeptides Leading to the Discovery of Surotomycin, a Novel Cyclic Lipopeptide Being Developed for the Treatment of Clostridium difficile-Associated Diarrhea” (J Med Chem, 2015)", "assay_type_in_all_cases": "functional", "key": {"Staphylococcus aureus [1]": {"test_system": "Staphylococcus aureus", "assay": "Antimicrobial activity against daptomycin-non-susceptible Staphylococcus aureus 1326 incubated anaerobically at 37 degC for 48 hrs by agar dilution method", "details": "Staphylococcus aureus, 1326, 48 h"}, "Staphylococcus aureus [2]": {"test_system": "Staphylococcus aureus", "assay": "Potency index, ratio of MIC for daptomycin to MIC for test compound against daptomycin-non-susceptible Staphylococcus aureus 5012 incubated anaerobically at 37 degC for 48 hrs by agar dilution method"}, "Enterococcus faecium [3]": {"test_system": "Enterococcus faecium", "assay": "Potency index, ratio of MIC for daptomycin to MIC for test compound against Enterococcus faecium ATCC 6569 incubated anaerobically at 37 degC for 48 hrs by agar dilution method"}, "Staphylococcus aureus [4]": {"test_system": "Staphylococcus aureus", "assay": "Antimicrobial activity against daptomycin-susceptible Staphylococcus aureus ATCC 29213 incubated anaerobically at 37 degC for 48 hrs by agar dilution method", "details": "ATCC 29213, 48 h"}, "Staphylococcus aureus [5]": {"test_system": "Staphylococcus aureus", "assay": "Potency index, ratio of MIC for daptomycin to MIC for test compound against daptomycin-non-susceptible Staphylococcus aureus 5060 incubated anaerobically at 37 degC for 48 hrs by agar dilution method"}, "Staphylococcus aureus [6]": {"test_system": "Staphylococcus aureus", "assay": "Potency index, ratio of MIC for daptomycin to MIC for test compound against daptomycin-non-susceptible Staphylococcus aureus 5016 incubated anaerobically at 37 degC for 48 hrs by agar dilution method"}, "Clostridioides difficile [7]": {"test_system": "Clostridioides difficile", "assay": "Potency index, ratio of MIC for daptomycin to MIC for test compound against daptomycin-resistant Clostridium difficile NAP1 incubated anaerobically at 37 degC for 48 hrs by agar dilution method"}, "Staphylococcus aureus [8]": {"test_system": "Staphylococcus aureus", "assay": "Antimicrobial activity against daptomycin-non-susceptible Staphylococcus aureus 5033 incubated anaerobically at 37 degC for 48 hrs by agar dilution method", "details": "Staphylococcus aureus, 5033, 48 h"}, "Staphylococcus aureus [9]": {"test_system": "Staphylococcus aureus", "assay": "Antimicrobial activity against daptomycin-non-susceptible Staphylococcus aureus 5016 incubated anaerobically at 37 degC for 48 hrs by agar dilution method", "details": "Staphylococcus aureus, 5016, 48 h"}, "Clostridioides difficile [10]": {"test_system": "Clostridioides difficile", "assay": "Antimicrobial activity against metronidazole-resistant Clostridium difficile"}, "Staphylococcus aureus [11]": {"test_system": "Staphylococcus aureus", "assay": "Potency index, ratio of MIC for daptomycin to MIC for test compound against daptomycin-non-susceptible Staphylococcus aureus 1146 incubated anaerobically at 37 degC for 48 hrs by agar dilution method"}, "Enterococcus faecium [12]": {"test_system": "Enterococcus faecium", "assay": "Antimicrobial activity against daptomycin-resistant Enterococcus faecium ATCC 6569 incubated anaerobically at 37 degC for 48 hrs by agar dilution method", "details": "ATCC 6569, 48 h"}, "Staphylococcus aureus [13]": {"test_system": "Staphylococcus aureus", "assay": "Antimicrobial activity against daptomycin-non-susceptible Staphylococcus aureus 399 incubated anaerobically at 37 degC for 48 hrs by agar dilution method", "details": "Staphylococcus aureus, 399, 48 h"}, "Clostridioides difficile [14]": {"test_system": "Clostridioides difficile", "assay": "Antimicrobial activity against daptomycin-resistant Clostridium difficile NAP1 incubated anaerobically at 37 degC for 48 hrs by agar dilution method", "details": "NAP1, 48 h"}, "Staphylococcus aureus [15]": {"test_system": "Staphylococcus aureus", "assay": "Potency index, ratio of MIC for daptomycin to MIC for test compound against daptomycin-non-susceptible Staphylococcus aureus 5033 incubated anaerobically at 37 degC for 48 hrs by agar dilution method"}, "Staphylococcus aureus [16]": {"test_system": "Staphylococcus aureus", "assay": "Antimicrobial activity against daptomycin-non-susceptible Staphylococcus aureus 5004 incubated anaerobically at 37 degC for 48 hrs by agar dilution method", "details": "Staphylococcus aureus, 5004, 48 h"}, "Staphylococcus aureus [17]": {"test_system": "Staphylococcus aureus", "assay": "Potency index, ratio of MIC for daptomycin to MIC for test compound against daptomycin-non-susceptible Staphylococcus aureus 5030 incubated anaerobically at 37 degC for 48 hrs by agar dilution method"}, "Staphylococcus aureus [18]": {"test_system": "Staphylococcus aureus", "assay": "Antimicrobial activity against daptomycin-non-susceptible Staphylococcus aureus 5006 incubated anaerobically at 37 degC for 48 hrs by agar dilution method", "details": "Staphylococcus aureus, 5006, 48 h"}, "Staphylococcus aureus [19]": {"test_system": "Staphylococcus aureus", "assay": "Potency index, ratio of MIC for daptomycin to MIC for test compound against daptomycin-non-susceptible Staphylococcus aureus 5010 incubated anaerobically at 37 degC for 48 hrs by agar dilution method"}, "Staphylococcus aureus [20]": {"test_system": "Staphylococcus aureus", "assay": "Potency index, ratio of MIC for daptomycin to MIC for test compound against daptomycin-non-susceptible Staphylococcus aureus 5004 incubated anaerobically at 37 degC for 48 hrs by agar dilution method"}, "Staphylococcus aureus [21]": {"test_system": "Staphylococcus aureus", "assay": "Antimicrobial activity against daptomycin-non-susceptible Staphylococcus aureus 5063 incubated anaerobically at 37 degC for 48 hrs by agar dilution method", "details": "Staphylococcus aureus, 5063, 48 h"}, "Staphylococcus aureus [22]": {"test_system": "Staphylococcus aureus", "assay": "Potency index, ratio of MIC for daptomycin to MIC for test compound against daptomycin-non-susceptible Staphylococcus aureus 1145 incubated anaerobically at 37 degC for 48 hrs by agar dilution method"}, "Staphylococcus aureus [23]": {"test_system": "Staphylococcus aureus", "assay": "Antimicrobial activity against daptomycin-non-susceptible Staphylococcus aureus 278 incubated anaerobically at 37 degC for 48 hrs by agar dilution method", "details": "Staphylococcus aureus, 278, 48 h"}, "Staphylococcus aureus [24]": {"test_system": "Staphylococcus aureus", "assay": "Antimicrobial activity against daptomycin-non-susceptible Staphylococcus aureus 5010 incubated anaerobically at 37 degC for 48 hrs by agar dilution method", "details": "Staphylococcus aureus, 5010, 48 h"}, "Staphylococcus aureus [25]": {"test_system": "Staphylococcus aureus", "assay": "Antimicrobial activity against daptomycin-non-susceptible Staphylococcus aureus 5017 incubated anaerobically at 37 degC for 48 hrs by agar dilution method", "details": "Staphylococcus aureus, 5017, 48 h"}, "Staphylococcus aureus [26]": {"test_system": "Staphylococcus aureus", "assay": "Potency index, ratio of MIC for daptomycin to MIC for test compound against daptomycin-non-susceptible Staphylococcus aureus 5014 incubated anaerobically at 37 degC for 48 hrs by agar dilution method"}, "Staphylococcus aureus [27]": {"test_system": "Staphylococcus aureus", "assay": "Potency index, ratio of MIC for daptomycin to MIC for test compound against daptomycin-non-susceptible Staphylococcus aureus 278 incubated anaerobically at 37 degC for 48 hrs by agar dilution method"}, "Staphylococcus aureus [28]": {"test_system": "Staphylococcus aureus", "assay": "Potency index, ratio of MIC for daptomycin to MIC for test compound against daptomycin-non-susceptible Staphylococcus aureus 5005 incubated anaerobically at 37 degC for 48 hrs by agar dilution method"}, "Staphylococcus aureus [29]": {"test_system": "Staphylococcus aureus", "assay": "Potency index, ratio of MIC for daptomycin to MIC for test compound against daptomycin-non-susceptible Staphylococcus aureus 1179 incubated anaerobically at 37 degC for 48 hrs by agar dilution method"}, "Staphylococcus aureus [30]": {"test_system": "Staphylococcus aureus", "assay": "Potency index, ratio of MIC for daptomycin to MIC for test compound against daptomycin-non-susceptible Staphylococcus aureus 5081 incubated anaerobically at 37 degC for 48 hrs by agar dilution method"}, "Staphylococcus aureus [31]": {"test_system": "Staphylococcus aureus", "assay": "Potency index, ratio of MIC for daptomycin to MIC for test compound against daptomycin-non-susceptible Staphylococcus aureus 5059 incubated anaerobically at 37 degC for 48 hrs by agar dilution method"}, "Staphylococcus aureus [32]": {"test_system": "Staphylococcus aureus", "assay": "Potency index, ratio of MIC for daptomycin to MIC for test compound against daptomycin-non-susceptible Staphylococcus aureus 5034 incubated anaerobically at 37 degC for 48 hrs by agar dilution method"}, "Staphylococcus aureus [33]": {"test_system": "Staphylococcus aureus", "assay": "Antimicrobial activity against daptomycin-non-susceptible Staphylococcus aureus 5030 incubated anaerobically at 37 degC for 48 hrs by agar dilution method", "details": "Staphylococcus aureus, 5030, 48 h"}, "Staphylococcus aureus [34]": {"test_system": "Staphylococcus aureus", "assay": "Potency index, ratio of MIC for daptomycin to MIC for test compound against daptomycin-non-susceptible Staphylococcus aureus 5006 incubated anaerobically at 37 degC for 48 hrs by agar dilution method"}, "Staphylococcus aureus [35]": {"test_system": "Staphylococcus aureus", "assay": "Antimicrobial activity against daptomycin-non-susceptible Staphylococcus aureus 5060 incubated anaerobically at 37 degC for 48 hrs by agar dilution method", "details": "Staphylococcus aureus, 5060, 48 h"}, "Enterococcus faecalis": {"test_system": "Enterococcus faecalis", "assay": "Potency index, ratio of MIC for daptomycin to MIC for test compound against daptomycin-resistant Enterococcus faecalis ATCC 49452 incubated anaerobically at 37 degC for 48 hrs by agar dilution method"}, "Staphylococcus aureus [36]": {"test_system": "Staphylococcus aureus", "assay": "Potency index, ratio of MIC for daptomycin to MIC for test compound against daptomycin-non-susceptible Staphylococcus aureus 399 incubated anaerobically at 37 degC for 48 hrs by agar dilution method"}}}
{"smiles": "CCCCCc1ccc(/C(C)=C/C(=O)N[C@@H](Cc2c[nH]c3ccccc23)C(=O)N[C@H](CC(N)=O)C(=O)N[C@@H](CC(=O)O)C(=O)N[C@@H]2C(=O)NCC(=O)N[C@@H](CCCN)C(=O)N[C@@H](CC(=O)O)C(=O)N[C@H](C)C(=O)N[C@@H](CC(=O)O)C(=O)NCC(=O)N[C@H](CO)C(=O)N[C@@H]([C@@H](C)CC(=O)O)C(=O)N[C@@H](CC(=O)c3ccccc3N)C(=O)O[C@@H]2C)cc1", "values": [{"measurement": "MIC", "setting": "Staphylococcus aureus [1]", "value": 0.5, "unit": "µg/mL"}, {"measurement": "Ratio", "setting": "Staphylococcus aureus [2]", "value": 2}, {"measurement": "Ratio", "setting": "Enterococcus faecium [3]", "value": ">8"}, {"measurement": "MIC", "setting": "Staphylococcus aureus [4]", "value": 0.25, "unit": "µg/mL"}, {"measurement": "Ratio", "setting": "Staphylococcus aureus [5]", "value": 2}, {"measurement": "Ratio", "setting": "Staphylococcus aureus [6]", "value": 2}, {"measurement": "Ratio", "setting": "Clostridioides difficile [7]", "value": 4}, {"measurement": "MIC", "setting": "Staphylococcus aureus [8]", "value": 0.25, "unit": "µg/mL"}, {"measurement": "MIC", "setting": "Staphylococcus aureus [9]", "value": 0.5, "unit": "µg/mL"}, {"measurement": "MIC", "setting": "Clostridioides difficile [10]", "value": 0.5, "unit": "µg/mL"}, {"measurement": "Ratio", "setting": "Staphylococcus aureus [11]", "value": 2}, {"measurement": "MIC", "setting": "Enterococcus faecium [12]", "value": 4, "unit": "µg/mL"}, {"measurement": "MIC", "setting": "Staphylococcus aureus [13]", "value": 0.125, "unit": "µg/mL"}, {"measurement": "MIC", "setting": "Clostridioides difficile [14]", "value": 0.5, "unit": "µg/mL"}, {"measurement": "Ratio", "setting": "Staphylococcus aureus [15]", "value": 2}, {"measurement": "MIC", "setting": "Staphylococcus aureus [16]", "value": 0.25, "unit": "µg/mL"}, {"measurement": "Ratio", "setting": "Staphylococcus aureus [17]", "value": 2}, {"measurement": "MIC", "setting": "Staphylococcus aureus [18]", "value": 0.5, "unit": "µg/mL"}, {"measurement": "Ratio", "setting": "Staphylococcus aureus [19]", "value": 2}, {"measurement": "Ratio", "setting": "Staphylococcus aureus [20]", "value": 2}, {"measurement": "MIC", "setting": "Staphylococcus aureus [21]", "value": 1, "unit": "µg/mL"}, {"measurement": "Ratio", "setting": "Staphylococcus aureus [22]", "value": 2}, {"measurement": "MIC", "setting": "Staphylococcus aureus [23]", "value": 1, "unit": "µg/mL"}, {"measurement": "MIC", "setting": "Staphylococcus aureus [24]", "value": 0.25, "unit": "µg/mL"}, {"measurement": "MIC", "setting": "Staphylococcus aureus [25]", "value": 0.5, "unit": "µg/mL"}, {"measurement": "Ratio", "setting": "Staphylococcus aureus [26]", "value": 2}, {"measurement": "Ratio", "setting": "Staphylococcus aureus [27]", "value": 2}, {"measurement": "Ratio", "setting": "Staphylococcus aureus [28]", "value": 2}, {"measurement": "Ratio", "setting": "Staphylococcus aureus [29]", "value": 2}, {"measurement": "Ratio", "setting": "Staphylococcus aureus [30]", "value": 2}, {"measurement": "Ratio", "setting": "Staphylococcus aureus [31]", "value": 2}, {"measurement": "Ratio", "setting": "Staphylococcus aureus [32]", "value": 2}, {"measurement": "MIC", "setting": "Staphylococcus aureus [33]", "value": 1, "unit": "µg/mL"}, {"measurement": "Ratio", "setting": "Staphylococcus aureus [34]", "value": 2}, {"measurement": "MIC", "setting": "Staphylococcus aureus [35]", "value": 1, "unit": "µg/mL"}, {"measurement": "Ratio", "setting": "Enterococcus faecalis", "value": ">8"}, {"measurement": "Ratio", "setting": "Staphylococcus aureus [36]", "value": 2}]}
